Measured values taken from patent publication US11452718B2 (AVALYN PHARMA INC., priority 2012, dated 2022).
Like-named read-outs stand apart in the source and are kept apart here.

Legend:
[1] = Co-solvent and surfactant effects on pirfenidone solubility; assay type: physicochemical
Experimental: Each sample was agitated at ambient temperature overnight. The samples were visually inspected and appearance recorded. Samples were centrifuged to sediment any un-dissolved material and the supernatant withdrawn via syringe through a 0.22 μm PVDF filter. […] The remaining filtered sample was split into three equal volumes in glass vials and placed at 25° C./60RH, 40° C./75RH and refrigeration. Samples are wrapped in aluminum foil to reduce light exposure. After the first night of incubation, samples are briefly visually inspected for any signs of discoloration or precipitate formation.

[2] = Bleomycin model of pulmonary fibrosis: right lung hydroxyproline content, left lung fibrosis score; assay type: in vivo, Wistar rats; conditions: Wistar, rat, plasma, read-out: Plasma AUCO-2 hrs
Experimental: (§1) To compare anti-fibrotic efficacy between extended-duration intratracheal, direct-lung aerosol administration and oral gavage, the bleomycin model of pulmonary fibrosis was performed. Doses for this study were selected based upon pharmacokinetic parameters obtained in Table 22 (from Example 8). Briefly, Wistar rats (175-225 grams) were administered bleomycin by the intratracheal route using a Penn Century MicroSprayer® catheter. On the seventh day following bleomycin exposure, animals initiated treatment with either saline or pirfenidone. Animals were dosed once a day on days 7 through 28, and euthanized on day 29. Pirfenidone was administered either intratracheally using Penn Century MicroSprayer catheter or by oral gavage. Sham and bleomycin control groups received either no treatment or intratracheal saline by Penn Century MicroSprayer catheter. While dosing more frequently (or less frequently) may improve the observed effects, anesthesia required for intratracheal administration reduced animal weight gain (reduced food intake) and, thus limited dosing to once a day for this study. Because anesthesia reduced weight gain, all study animals (intratracheal, oral and control) received once-a-day isoflurane using the same technique and duration. Twelve animals were enrolled into each dosing group. […] Oral gavage was administered in a single 300 mcL volume. Due to technical restrictions, instead of the mg/kg dose being equally split between six 50 mcL administrations over 2 minutes, intratracheal administration was performed with three equal 50 mcL volumes administered every 40 seconds over the same period. For dose selection, data from Table 22 was extrapolated. On day 29, animals were euthanized. Right lungs were extracted and measured for hydroxyproline content, while left lungs were subjected to histology. Histological sections were stained with picrosirius red and scored for lung tissue fibrosis. Twenty random photographs of each stained lung tissue section were taken, blinded and scored by an independent review panel. Observations were pooled for analysis. […] Doses selected for this study targeted critical pharmacokinetic parameters from the comparator oral route (matching lung tissue Cmax or plasma AUC). These targets were selected from a pharmacokinetic study wherein lung tissue and plasma were collected and pirfenidone levels were compared. In these studies, lung tissue Cmax following intratracheal administration was always the first collected time point. It is important to consider that the duration of time required to collect this first lung tissue may not accurately capture the true lung Cmax. […] It was this pharmacokinetic point that the above Cmax for dosing was selected. If it was possible to collect lung tissue earlier, the Cmax may be higher. As the Penn Century MicroSprayer catheter delivers nearly the entire loaded dose, the possible delivered Cmax in these studies may be higher. […] In this study, we divided the dose into thirds.

[3] = system: bleomycin model of pulmonary fibrosis; assay: as above; assay type: in vivo, Wistar rats; conditions: for Average Hydroxyproline, difference from bleomycin control: sham-subtracted
Experimental: as §1

[4] = Rubino et al., cited from earlier work

Q: For `Cc1ccc(=O)n(-c2ccccc2)c1` [pirfenidone, 5-methyl-1-phenyl-2-(1H)-pyridone], which “Pirfenidone Saturation Solubility” value ([1]; 4% EtOH, 0.1% CPB, 95.9% water, pH 4.9) is on record?
A: 20.2 mg/mL

Q: What about the “effect of co-solvent on saturation solubility” value ([1]; ethanol (EtOH) or propylene glycol (PG)) of the same compound?
A: increase the saturation solubility

Q: What about the “effect of co-solvents on saturation solubility” value ([1]; ethanol and propylene glycol together) of the same compound?
A: additive effect in increasing the saturation solubility

Q: What about the AUC ([2]; inhaled or intranasal, Bleomycin + IT 0.9 mg/kg) of the same compound?
A: 3000 ng·h/mL

Q: And the AUC ([2]; inhaled or intranasal, Bleomycin + IT 3.0 mg/kg)?
A: 7700 ng·h/mL

Q: And the AUC ([2]; inhaled or intranasal, Bleomycin + IT 6.4 mg/kg)?
A: 16500 ng·h/mL

Q: And the AUC ([2]; Bleomycin + PO 30 mg/kg)?
A: 16600 ng·h/mL

Q: And the AUC ([2]; Bleomycin + PO 100 mg/kg)?
A: 29600 ng·h/mL

Q: And the “possible lung tissue Cmax” value ([3]; 0.9 mg/kg intratracheal dose divided into thirds)?
A: about 50 mcg/gram lung tissue

Q: What about the “possible lung tissue Cmax” value ([3]; 0.9 mg/kg intratracheal dose to a 250 gram rat, lung about 1.5 grams, whole dose) of the same compound?
A: ≤ 150 mcg/gram

Q: And the anti-fibrotic efficacy ([3]; 3.0 mg/kg intratracheal, direct lung aerosol rat dose)?
A: no observed pirfenidone efficacy

Q: And the “Lung Tissue AUC0-2 hrs” value ([3]; Bleomycin + IT 0.9 mg/kg)?
A: 2.6 µg·h/g

Q: And the “Lung Tissue Cmax” value ([3]; Bleomycin + IT 0.9 mg/kg)?
A: 11.6 µg/g

Q: And the “Average Hydroxyproline, difference from bleomycin control” value (“Average Hydroxyproline, difference” below) ([3]; Bleomycin + IT 0.9 mg/kg)?
A: −0.70*, **** mg/rightlung

Q: And the “Lung Tissue AUC0-2 hrs” value ([3]; Bleomycin + IT 3.0 mg/kg)?
A: 7.3 µg·h/g

Q: What about the “Lung Tissue Cmax” value ([3]; Bleomycin + IT 3.0 mg/kg) of the same compound?
A: 33.5 µg/g

Q: And the “Average Hydroxyproline, difference” value ([3]; Bleomycin + IT 3.0 mg/kg)?
A: −0.02**, **** mg/rightlung

Q: What about the “Lung Tissue AUC0-2 hrs” value ([3]; Bleomycin + IT 6.4 mg/kg) of the same compound?
A: 15.5 µg·h/g

Q: And the “Lung Tissue Cmax” value ([3]; Bleomycin + IT 6.4 mg/kg)?
A: 71.5 µg/g

Q: What about the “Average Hydroxyproline, right lung” value ([3]; Bleomycin + IT 6.4 mg/kg once a day, days 7 through 28) of the same compound?
A: 3.50 mg/right lung

Q: What about the “Average Hydroxyproline, difference” value ([3]; Bleomycin + IT 6.4 mg/kg) of the same compound?
A: −0.08***, **** mg/rightlung

Q: What about the “Lung Tissue AUC0-2 hrs” value ([3]; Bleomycin + PO 30 mg/kg) of the same compound?
A: 18.2 µg·h/g

Q: What about the “Lung Tissue Cmax” value ([3]; Bleomycin + PO 30 mg/kg) of the same compound?
A: 11.8 µg/g

Q: And the “Lung Tissue AUC0-2 hrs” value ([3]; Bleomycin + PO 100 mg/kg)?
A: 34.4 µg·h/g

Q: What about the “Lung Tissue Cmax” value ([3]; Bleomycin + PO 100 mg/kg) of the same compound?
A: 33.6 µg/g

Q: What about the “anti-fibrotic efficacy, direct lung delivery versus oral” value ([3]; intratracheal aerosol versus oral gavage) of the same compound?
A: more efficacious (less fibrosis and less hydroxyproline)

Q: What about the T1/2 beta ([4]; lung tissue (derived solely from plasma T1/2), aerosol 110 mg RDD, 2009 fasted-state) of the same compound?
A: 2.5 h

Q: What about the T1/2 beta ([4]; lung tissue (derived solely from plasma T1/2), aerosol 154 mg RDD, 2009 fasted-state) of the same compound?
A: 2.5 h

Q: What about the T1/2 beta ([4]; lung tissue (derived solely from plasma T1/2), aerosol 185 mg RDD, 2009 fasted-state) of the same compound?
A: 2.5 h

Q: And the T1/2 beta ([4]; lung tissue (derived solely from plasma T1/2), oral 801 mg, fasted-state, 2009)?
A: 2.5 h

Q: And the T1/2 beta ([4]; lung tissue (derived solely from plasma T1/2), oral 801 mg, fed-state, 2009)?
A: 2.4 h

Q: And the T1/2 beta ([4]; plasma, aerosol 110 mg RDD, 2009 fasted-state)?
A: 2.5 h

Q: And the T1/2 beta ([4]; plasma, aerosol 154 mg RDD, 2009 fasted-state)?
A: 2.5 h

Q: And the T1/2 beta ([4]; plasma, aerosol 185 mg RDD, 2009 fasted-state)?
A: 2.5 h

Q: What about the T1/2 beta ([4]; plasma, oral 801 mg, fasted-state, 2009) of the same compound?
A: 2.5 h

Q: And the T1/2 beta ([4]; plasma, oral 801 mg, fed-state, 2009)?
A: 2.4 h
